ChEMBL document CHEMBL5226377, “Totopotensamide Congeners from a Halogenase-Inactivated Mutant” (J Nat Prod, 2023)

Legend:
Format in all cases: functional, cell-based
PANC-1 = assay: Cytotoxicity against human PANC-1 cells assessed as inhibition of cell growth incubated for 24 hrs by MTT assay; details: PANC-1, 24 h
BXPC-3 = assay: Cytotoxicity against human BXPC-3 cells assessed as inhibition of cell growth incubated for 24 hrs by MTT assay; details: BXPC-3, 24 h
Calu-3 = assay: Cytotoxicity against human Calu-3 cells assessed as inhibition of cell growth incubated for 24 hrs by MTT assay; details: Calu-3, 24 h
A549 = assay: Cytotoxicity against human A549 cells assessed as inhibition of cell growth incubated for 24 hrs by MTT assay; details: A549, 24 h

| Compound | IC50 (PANC-1) | IC50 (BXPC-3) | IC50 (Calu-3) | IC50 (A549) |
| --- | --- | --- | --- | --- |
| CC[C@H](C)[C@@H]1NC(=O)[C@H](c2cc(O)c(C)c(O)c2)NC(=O)[C@H](NC(=O)[C@H](C)NC(=O)[C@H](NC(=O)CC(=O)[C@@H](C)C[C@@H](C)C[C@@H](C)[C@H](O)[C@@H](C)[C@@H](O)CC)[C@@H](C)O)[C@@H](C)NC(=O)CNC1=O | 42.1 µM | 30.4 µM | > 100 µM | 58.8 µM |
| CC[C@H](C)[C@@H]1NC(=O)[C@H](c2cc(O)c(C)c(O)c2)NC(=O)[C@H](NC(=O)[C@H](C)NC(=O)[C@H](NC(=O)CC(=O)[C@@H](C)C[C@@H](C)C[C@@H](C)[C@H](O)[C@@H](C)C(=O)[C@@H](C)O)[C@@H](C)O)[C@@H](C)NC(=O)CNC1=O | 6.5 µM | 2.3 µM | 18.8 µM | 9.2 µM |
| CCC(=O)[C@H](C)[C@@H](O)[C@H](C)C[C@H](C)C[C@H](C)C(=O)CC(=O)N[C@@H](C(=O)N[C@@H](C)C(=O)N[C@H]1C(=O)N[C@@H](c2cc(O)c(C)c(O)c2)C(=O)N[C@@H]([C@@H](C)CC)C(=O)NCC(=O)N[C@@H]1C)[C@@H](C)O | 9.5 µM | 7.2 µM | 14.6 µM | 9.7 µM |
| CC[C@H](C)[C@@H]1NC(=O)[C@H](c2cc(O)c(C)c(O)c2Cl)NC(=O)[C@H](NC(=O)[C@H](C)NC(=O)[C@H](NC(=O)CC(=O)[C@@H](C)C[C@@H](C)C[C@@H](C)[C@H](O)[C@@H](C)[C@@H](O[C@@H]2O[C@H](CO)[C@@H](OC)[C@H](O)[C@H]2O)[C@@H](C)O)[C@@H](C)O)[C@@H](C)NC(=O)CNC1=O | > 100 µM | > 100 µM | > 100 µM | > 100 µM |
| CC[C@H](C)[C@@H]1NC(=O)[C@H](c2cc(O)c(C)c(O)c2)NC(=O)[C@H](NC(=O)[C@H](C)NC(=O)[C@H](NC(=O)CC(=O)[C@@H](C)C[C@@H](C)C[C@@H](C)[C@H](O)[C@@H](C)[C@@H](O[C@@H]2O[C@H](CO)[C@@H](OC)[C@H](O)[C@H]2O)[C@@H](C)O)[C@@H](C)O)[C@@H](C)NC(=O)CNC1=O | > 100 µM | > 100 µM | > 100 µM | > 100 µM |
| CC[C@H](C)[C@@H]1NC(=O)[C@H](c2cc(O)c(C)c(O)c2)NC(=O)[C@H](NC(=O)[C@H](C)NC(=O)[C@H](NC(=O)CC(=O)[C@@H](C)C[C@@H](C)C[C@@H](C)[C@H](O)[C@@H](CO)[C@@H](O)CC)[C@@H](C)O)[C@@H](C)NC(=O)CNC1=O | 6.6 µM | 8.2 µM | 15.3 µM | 10.4 µM |
| CCC[C@H](C)[C@@H](O)[C@H](C)C[C@H](C)C[C@H](C)C(=O)CC(=O)N[C@@H](C(=O)N[C@@H](C)C(=O)N[C@H]1C(=O)N[C@@H](c2cc(O)c(C)c(O)c2)C(=O)N[C@@H]([C@@H](C)CC)C(=O)NCC(=O)N[C@@H]1C)[C@@H](C)O | > 100 µM | > 100 µM | > 100 µM | > 100 µM |
| CC[C@H](O[C@@H]1O[C@H](CO)[C@@H](OC)[C@H](O)[C@H]1O)[C@H](C)[C@@H](O)[C@H](C)C[C@H](C)C[C@H](C)C(=O)CC(=O)N[C@@H](C(=O)N[C@@H](C)C(=O)N[C@H]1C(=O)N[C@@H](c2cc(O)c(C)c(O)c2)C(=O)N[C@@H]([C@@H](C)CC)C(=O)NCC(=O)N[C@@H]1C)[C@@H](C)O | 3.9 µM | 3.9 µM | 12.2 µM | 3.7 µM |
